Data on 13 compounds can be found in patent US4610977A, “N-alkyl and N-benzyl adriamycin derivatives” (The University of Tennessee Research Corporation, priority 1985, dated 1986).

A short description of data set [1]: In vivo antitumor activity against murine L1210 leukemia in B6D2F1 male mice. The note with it: mouse, in vivo, ip. The source says:
(§1) The in vivo evaluations were made by preparing a 0.01 to 0.4% by weight solution of the active agent in an aqueous solution of polyethoxylated castor oil (10% by volume) and ethanol (10% by volume) as a carrier and injecting the dosage intraperitoneally. The evaluations were made of the antitumor activity against the murine P 388 and L1210 leukemias in B6D2F1 male mice essentially according to standard National Cancer Institute protocols as set forth by Geran et al., Cancer Chemotherap. Rep., Part 3, Volume 3, pages 1 et seq.

The next data set deals with murine L1210 leukemia. The data set is described as above. The conditions noted are these: L1210, qd 1-4; for % ILS (percent median increase in life span relative to untreated controls): at optimal dose (Examples 1/2/3: 12.5/20.0/25.0, adriamycin 3.0 mg/kg); for % ILS (percent median increase in life span relative to untreated controls) / LTS (tumor free long term survivors): ip; for LTS (tumor free long term survivors): at optimal dose, day of sacrifice: Examples 1-3 42.
From the text: as §1

The test system of the next data set is malignant tumors. The conditions noted are these: cited from earlier work; for Clinical antitumor effectiveness: certain malignant tumors, e.g. induction of remission in acute leukemia; for Toxicities accompanying chemotherapy: limit effectiveness, particularly long-term use.
A further data set in a line: in vivo. The conditions noted are these: mouse, ip.
From the text: as §1

The subject of a further data set is CCRF-CEM cell line. As to the kind of experiment: Growth inhibition of CCRF-CEM cells in culture, 48 hours continuous drug exposure. Format: cell-based, child with lymphoblastic leukemia. The note with it: Homo sapiens. The procedure: The toxicity and therapeutic effectiveness of the new compounds and active agents of the present invention are shown by in vitro assays and by in vivo evaluations in mice. The in vitro assays measure the growth inhibiting activity of the materials against the CCRF-CEM cell line in culture. The cell line was derived from the peripheral blood of a child with lymphoblastic leukemia as described by Foley et al., Cancer, Volume 18, page 522 et seq. (1965), and the assays were carried out by the procedure of Foley and Lazarus, Biochem. Pharmacol., Vol. 16, pages 659 et seq. (1967), the compounds being dissolved in dimethyl sulfoxide and diluted into cell culture media to give a final dimethyl sulfoxide concentration of 1%, the results being reported in terms of the dose in micromoles per liter required to inhibit growth of the cultures by 50% relative to control cultures to which no drug had been added (ID50).
^1 Concentration required to inhibit growth of cultures by 50%
relative to untreated controls; 48 hours continuous drug exposure.

Setting [2] is: 48 hours continuous drug exposure, final DMSO 1%, read-out: ID50 (concentration required to inhibit growth of cultures by 50% relative to untreated controls).
The mark [3] stands for this setting: 48 hours continuous drug exposure, read-out: ID50, corresponding compounds having different N-substitution.

Read-outs that look alike come from different tables or passages of the source.

With `COc1cccc2c1C(=O)c1c(O)c3c(c(O)c1C2=O)C[C@@](O)(C(=O)CO)C[C@@H]3O[C@H]1C[C@H](N)[C@H](O)[C@H](C)O1` [Adriamycin], in data set [1], the MTD is 3 mg/kg. In the data set on murine L1210 leukemia (adriamycin 3.0 mg/kg, footnote 4), the “All animals dead by day” value is at most 22 days. Also, in the data set on murine L1210 leukemia, the “% ILS (percent median increase in life span relative to untreated controls)” value was “+90%” and the “LTS (tumor free long term survivors)” value is listed as 0/7. In the data set on malignant tumors, the Clinical antitumor effectiveness entry is “effective clinically against certain malignant tumors” and the Toxicities accompanying chemotherapy entry is on record as “a variety of toxicities”. Also, in the data set on malignant tumors (certain solid tumors), the “Clinical efficacy against certain solid tumors” value is on record as “has shown clinical efficacy against certain solid tumors”.
Take `CCCCN(CCCC)[C@H]1C[C@H](O[C@H]2C[C@](O)(C(=O)CO)Cc3c(O)c4c(c(O)c32)C(=O)c2c(OC)cccc2C4=O)O[C@@H](C)[C@H]1O` [Di-n-butyl]: in “in vivo”, the MTD stood at 25 mg/kg.
On the same count and under the same terms, for `CCCN(CCC)[C@H]1C[C@H](O[C@H]2C[C@](O)(C(=O)CO)Cc3c(O)c4c(c(O)c32)C(=O)c2c(OC)cccc2C4=O)O[C@@H](C)[C@H]1O` [Di-n-propyl] the value was 20 mg/kg.
As to `CCCCC(=O)OCC(=O)[C@]1(O)Cc2c(O)c3c(c(O)c2[C@@H](O[C@H]2C[C@H](NCc4ccccc4)[C@H](O)[C@H](C)O2)C1)C(=O)c1c(OC)cccc1C3=O` [Example 1, N-Benzyladriamycin-14-valerate], the MTD in data set [1] was 12.5 mg/kg; in the data set “in vivo”, 10 mg/kg. For the same compound, the “% ILS (percent median increase in life span relative to untreated controls)” value in the data set with murine L1210 leukemia is recorded as “> +350%”. Also, the “LTS (tumor free long term survivors)” value in the data set on murine L1210 leukemia is on record as 5/7. Besides, the IC50 in the data set with CCRF-CEM cell line (setting [2]) was determined as 1 µM.
For `CCCCC(=O)OCC(=O)[C@]1(O)Cc2c(O)c3c(c(O)c2[C@@H](O[C@H]2C[C@H](N(CCC)CCC)[C@H](O)[C@H](C)O2)C1)C(=O)c1c(OC)cccc1C3=O` [Example 2, N,N-Di(n-propyl)adriamycin-14-valerate], the MTD in data set [1] was found to be 20 mg/kg. Besides, in the data set on murine L1210 leukemia, the “% ILS (percent median increase in life span relative to untreated controls)” value is reported as “> +350%” and the “LTS (tumor free long term survivors)” value is recorded as 4/7. Moreover, in “in vivo”, the MTD is 20 mg/kg. In addition, the IC50 in the data set with CCRF-CEM cell line (setting [2]) is 1.9 µM.
Turning to `CCCCC(=O)OCC(=O)[C@]1(O)Cc2c(O)c3c(c(O)c2[C@@H](O[C@H]2C[C@H](N(CCCC)CCCC)[C@H](O)[C@H](C)O2)C1)C(=O)c1c(OC)cccc1C3=O` [Example 3, N,N-Di(n-butyl)adriamycin-14-valerate], the MTD in data set [1] came to 25 mg/kg; in “in vivo”, 30 mg/kg. Moreover, the “% ILS (percent median increase in life span relative to untreated controls)” value in the data set on murine L1210 leukemia was “> +350%”. Moreover, the “LTS (tumor free long term survivors)” value in the data set with murine L1210 leukemia is 5/7. The IC50 in the data set with CCRF-CEM cell line (setting [2]) is 2.1 µM.
On to `COc1cccc2c1C(=O)c1c(O)c3c(c(O)c1C2=O)C[C@@](O)(C(=O)CO)C[C@@H]3O[C@H]1C[C@H](NCc2ccccc2)[C@H](O)[C@H](C)O1` [Mono-N--benzyl], for which, in “in vivo”, the MTD stood at 5 mg/kg.
With `COc1cccc2c1C(=O)c1c(O)c3c(c(O)c1C2=O)C[C@@](O)(C(C)=O)C[C@@H]3O[C@H]1C[C@H](N)[C@H](O)[C@H](C)O1` [daunomycin], in the data set with malignant tumors, the Clinical antitumor effectiveness result is listed as “effective clinically against certain malignant tumors” and the Toxicities accompanying chemotherapy result was “a variety of toxicities”.
`CCCCCCN(CCCCCC)[C@H]1C[C@H](O[C@H]2C[C@](O)(C(=O)COC(=O)CCCC)Cc3c(O)c4c(c(O)c32)C(=O)c2c(OC)cccc2C4=O)O[C@@H](C)[C@H]1O` [di-n-hexyl] displayed an MTD in the data set “in vivo” of 40 mg/kg. Moreover, the IC50 in the data set with CCRF-CEM cell line (setting [3]) was determined as 2.5 µM.
`CCCCC(=O)OCC(=O)[C@]1(O)Cc2c(O)c3c(c(O)c2[C@@H](O[C@H]2C[C@H](N(Cc4ccccc4)Cc4ccccc4)[C@H](O)[C@H](C)O2)C1)C(=O)c1c(OC)cccc1C3=O` [dibenzyl] returned an MTD in the data set “in vivo” of 20 mg/kg. Also, the IC50 in the data set on CCRF-CEM cell line (48 h, read-out: ID50, corresponding compounds having different N-substitution) was over 5 µM.
`CCCCC(=O)OCC(=O)[C@]1(O)Cc2c(O)c3c(c(O)c2[C@@H](O[C@H]2C[C@H](N(CC)CC)[C@H](O)[C@H](C)O2)C1)C(=O)c1c(OC)cccc1C3=O` [diethyl] yielded an MTD in the data set “in vivo” of 8 mg/kg. In the data set with CCRF-CEM cell line (setting [3]), the IC50 was 0.3 µM.
For the compound `CCCCC(=O)OCC(=O)[C@]1(O)Cc2c(O)c3c(c(O)c2[C@@H](O[C@H]2C[C@H](N(C)C)[C@H](O)[C@H](C)O2)C1)C(=O)c1c(OC)cccc1C3=O` [dimethyl], in the data set with CCRF-CEM cell line (setting [3]), the IC50 came to 0.02 µM.
Regarding `CCCCC(=O)OCC(=O)[C@]1(O)Cc2c(O)c3c(c(O)c2[C@@H](O[C@H]2C[C@H](NCCC)[C@H](O)[C@H](C)O2)C1)C(=O)c1c(OC)cccc1C3=O` [mono-n-propyl, N mono(n-propyl) adriamycin-14-valerate], the MTD in “in vivo” came out at 15 mg/kg. Moreover, in the data set on CCRF-CEM cell line (setting [3]), the IC50 was 0.17 µM.
